Read-outs that look alike come from different tables or passages of the source.
Assays:
[1] = system: pCTD_s2 or MCL1; test: Immunoblotting of CDK9-dependent biomarkers in ZR-75-1, T-47D and MCF7 cells; assay type: cell-based, human; settings: MCF7, T-47D, ZR-75-1 cells; 24 hours; highest concentration (20 µM)
Procedure: Protein lysates were prepared from the cells and analyzed for the expression of various biomarkers by immunoblotting. The biomarkers included phosphor-Rb at serines 807/811,phosphorylation of serine 2 on the C-terminal repeat domain on RNA polymerase II (pCTD) and MCL1. Images of Western blots were cropped to denote the relevant band(s) for clarity. […] Ki-67 positive events were obtained by gating versus background signal.

[2] = system: MCF7 cells; test: Ki-67 protein expression, MCF7; assay type: cell-based; settings: Homo sapiens, 2 DT, read-out: EC50 Ki-67 levels
Procedure: (§1) Relative IC50/EC50 values were determined by curve fitting to a four parameter logistic equation: Y = bottom + ((top-bottom)/ (1+exp(HillSlope*(X – LnIC50)), where X is the natural log of dose/concentration, Y is response, decreasing as X increases, top and bottom are plateaus in the same units as Y, lnIC50 is the natural log of potency, in the same log units as X, and HillSlope measures the steepness of the curve. Data were plotted using GraphPad Prism.
After 72 hours, cells were stained with an anti-FOXM1 antibody and a secondary goat anti-rabbit IgG, Alexa Fluor® 488 conjugate; nuclei were stained with propidium iodide (PI). Alternatively, for assessment of Ki-67 levels, cells were treated for 2 DT and then stained with Ki-67 and a secondary goat anti-rabbit IgG, Alexa Fluor® 488 conjugate. Plates were read in an Acumen Explorer Ex3 (TTP Labtech) using Cellista software and the percentages of FOXM1 positive and Ki-67 positive cells were calculated over the background signal. Data were normalized in Excel using the mean value obtained from treatment with 2 µM BEZ235 as the minimum and the mean value obtained from treatment with 0.2% DMSO as the maximum.

[3] = system: EFM-19 cells; test: PI high content imaging of G1 arrest and cell proliferation, EFM-19; assay type: cell-based; settings: Homo sapiens, at least 2 DT
Procedure: as §1, with “Prism. […]” for “Prism.”
Preclinical characterization of abemaciclib in hormone receptor […]
METHODS High content imaging cell-based assays for monitoring phosphorylation of Rb (ser780), G1 arrest and […]
ATP at 20°C by a secondary goat anti-mouse IgG-Alexa Fluor 488 in a 96-well plate filtration assay format. […] Plates were read in an kinase buffer containing 68 mM Hepes at pH 7.5, 6.67 mM Acumen Explorer eX3 (TTP Labtech). […] 10µL of CDK6/cyclin corresponding to 500-530 nm and the percentage of D3 enzyme complex (Millipore 14-519, #D13BP009NA) cells with pRb signal relative to the total PI stained (1 nM final concentration in the assay) was added onto subpopulation was calculated by the instrument’s software a mix of substrate and test compound. […]
(EDTA) was used to determine the level of background evaluated by measuring PI signal using high content 33P in the absence of enzyme activity. […]

[4] = system: MCF7 cells; test: Annexin V/PI flow cytometry, MCF7; assay type: cell-based, human; settings: 3 DT (untreated 11.1%)
Procedure: Annexin V/PI staining was performed following the vendor’s specifications in MCF7 and MDA-MB-361 cells. […] Raw data were analyzed with FlowJo X software. Events were gated for debris exclusion and singlets selection. A minimum of 10,000 cells were analyzed per sample.

EC50 [2]: 42.1 nM
SMILES: CCN1CCN(Cc2ccc(Nc3ncc(F)c(-c4cc(F)c5nc(C)n(C(C)C)c5c4)n3)nc2)CC1 [abemaciclib, Abemaciclib]
levels of pCTD_s2 or MCL1 [1]: no changes were observed
IC50 ([3]; n = 2, read-out: IC50 2n (G1 arrest)): 32 ± 21 nM
IC50 ([3]; n = 2, read-out: IC50 Cell number): 19 ± 4 nM
cells positive for annexin V ([4]; 0.5 µM): 41.4%
cells positive for annexin V ([4]; 2 µM): 66.7%

Source: publication PMC5642494 (Oncotarget, 2017)
